Experimental data: patent US11739043B2, “Illudin analogs, uses thereof, and methods for synthesizing the same” (Lantern Pharma Inc., priority 2018, dated 2023)

Key:
Assay type in all cases: cell-based
DU145 cell line = experiment: Cytotoxicity / growth inhibition, 96-well CellTiter-Glo assay, DU145; details: for GI50: Homo sapiens, DU-145, 72 h, DU145, prostate cancer cell line, 3-day assay, read-out: GI50, concentration that inhibits 50% cell growth
Method: (§1) Cytotoxicity. The growth-inhibition activities of both purified UMAF (also referred to as UMAF in this example) optical enantiomers were studied in a standard 96-well cell-based assay using representative cell lines from prostate, ovarian, and lung cancers. The concentrations that cause a 50% inhibition of cell growth (GI50) were determined using a luminescent vital assay reagent (CellTiter-Glo®, Promega Corporation). The growth inhibition curves as a function of UMAF concentration are shown from a representative assay. […] The GI50 concentrations of the two forms for the six cell lines are shown below.

PC3 cell line = experiment: Cytotoxicity / growth inhibition, 96-well CellTiter-Glo assay, PC3; details: Homo sapiens, PC-3, 72 h; PC3, prostate cancer cell line, 3-day assay; read-out: GI50, concentration that inhibits 50% cell growth
Method: as §1

OVCAR-3 cell line = experiment: Cytotoxicity / growth inhibition, 96-well CellTiter-Glo assay, OVCAR-3; details: for GI50: Homo sapiens, 72 h, OVCAR-3, ovarian cancer cell line, 3-day assay, read-out: GI50, concentration that inhibits 50% cell growth
Method: as §1

SK-OV3 cell line = experiment: Cytotoxicity / growth inhibition, 96-well CellTiter-Glo assay, SK-OV3; details: for GI50: Homo sapiens, SK-OV-3, 72 h, SK-OV3, ovarian cancer cell line, 3-day assay, read-out: GI50, concentration that inhibits 50% cell growth
Method: as §1

HCC827 cell line = experiment: Cytotoxicity / growth inhibition, 96-well CellTiter-Glo assay, HCC827; details: Homo sapiens, 72 h; HCC827, lung cancer cell line, 3-day assay; read-out: GI50, concentration that inhibits 50% cell growth
Method: as §1

H1975 cell line = experiment: Cytotoxicity / growth inhibition, 96-well CellTiter-Glo assay, H1975; details: for GI50: Homo sapiens, NCI-H1975, 72 h, H1975, lung cancer cell line, 3-day assay, read-out: GI50, concentration that inhibits 50% cell growth
Method: as §1

Row | SMILES | toxicity compared between the two enantiomers (growth inhibition curves) (DU145 cell line; DU145, FIG. 4) | GI50 (DU145 cell line) [nM] | GI50 (PC3 cell line) [nM] | GI50 (OVCAR-3 cell line) [nM] | toxicity compared between the two enantiomers (growth inhibition curves) (OVCAR-3 cell line; OVCAR3, FIG. 6) | GI50 (SK-OV3 cell line) [nM] | toxicity compared between the two enantiomers (growth inhibition curves) (SK-OV3 cell line; SK-OV3, FIG. 7) | GI50 (HCC827 cell line) [nM] | toxicity compared between the two enantiomers (growth inhibition curves) (H1975 cell line; H1975, FIG. 9) | GI50 (H1975 cell line) [nM]
1 | CC1=C(CN(O)C(N)=O)C2=C(C)C3(CC3)[C@](C)(O)C(=O)C2=C1 [(+)-UMAF, (+)-hydroxyureamethylacylfulvene] | more toxic | 34.8 | 1120 | 254 | more toxic | 554 | more toxic | 897 | more toxic | 287
2 | CC1=C(CN(O)C(N)=O)C2=C(C)C3(CC3)[C@@](C)(O)C(=O)C2=C1 [(−)-UMAF, (−)-hydroxyureamethylacylfulvene] | – | 506 | 824 | 1820 | – | 2400 | – | 1640 | – | 6320
